For one test, the target named is IRAK4 (Homo sapiens (Human), UniProt Q9NWZ3). The experiment in a line: IRAK4 Inhibition Assay. It counts as biochemical. As to conditions: ATP 500 μM; IRAK4 0.6 nM; 60 min at room temperature. The protocol:
The assays were performed in U-bottom 384-well plates. […] The reaction was initiated by the combination of IRAK4 with substrates and test compounds. The reaction was incubated at room temperature for 60 min. and terminated by adding 45 μL of 35 mM EDTA to each sample. The reaction mixture was analyzed on the Caliper LABCHIP® 3000 (Caliper, Hopkinton, Mass.) by electrophoretic separation of the fluorescent substrate and phosphorylated product.

For test [1], the system named is TLR2 induced IL-6 in peripheral blood mononuclear cells (PBMCs). The experiment in a line: PBMC TLR2 Induced IL-6 Assay. It counts as cell-based, human. As to conditions: human PBMCs, 10 μg/ml lipoteichoic acid for 5 hours, IL-6 by ELISA, value without asterisk, read-out: Cell IC50. The procedure, abridged:
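IL-6 ELISA of supernatants after a 5 h challenge with the TLR2 agonist lipoteichoic acid (10 μg/ml). Before stimulation, human PBMCs (250000 cells/well; RPMI, 10% heat-inactivated FCS) received compound for 30 min at 37° C. Values given as IC50 or EC50.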
Background: ELISA stands for enzyme-linked immunosorbent assay.

pIC50: −log10 of the molar value. Like-named read-outs stand apart in the source and are kept apart here.

The pIC50 is −log10 of the IC50, conventionally taken in molar units.

IRAK4, sequence (Q9NWZ3 whole entry, species assumed): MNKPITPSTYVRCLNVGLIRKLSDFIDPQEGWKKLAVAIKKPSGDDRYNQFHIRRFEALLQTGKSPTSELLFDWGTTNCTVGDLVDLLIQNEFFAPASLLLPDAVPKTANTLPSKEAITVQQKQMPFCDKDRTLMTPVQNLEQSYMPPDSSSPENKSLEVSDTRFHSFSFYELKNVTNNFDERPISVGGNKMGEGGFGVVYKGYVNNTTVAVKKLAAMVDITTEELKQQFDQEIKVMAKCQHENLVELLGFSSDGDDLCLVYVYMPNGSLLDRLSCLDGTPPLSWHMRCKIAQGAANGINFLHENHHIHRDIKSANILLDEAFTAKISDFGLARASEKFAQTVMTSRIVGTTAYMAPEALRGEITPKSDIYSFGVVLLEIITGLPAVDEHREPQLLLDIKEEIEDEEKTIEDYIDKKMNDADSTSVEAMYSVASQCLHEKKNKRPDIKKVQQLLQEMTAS

In the case of `CC(C)(F)CNc1cc(Nc2ccc3ncsc3n2)ncc1C(=O)NC[C@@H](F)C(C)(C)O` [Example 314], the pIC50 was 8.57 on IRAK4 and 6.94 in test [1] (Homo sapiens, PBMC, 5 h).

`CC(C)(O)[C@H](F)CNC(=O)c1cnc(Nc2cc3scnc3cn2)cc1NC1CC1` [Example 315]: the negative-log IC50 (pIC50) at IRAK4 is 8.41; in test [1] (Homo sapiens, PBMC, 5 h), 6.37.

`CC(C)(F)CNc1cc(Nc2cc3scnc3cn2)ncc1C(=O)NC[C@@H](F)C(C)(C)O` [Example 316]: the negative logarithm of the IC50 (pIC50) at IRAK4 was 8.33; in test [1] (Homo sapiens, PBMC, 5 h), 6.37.

On to `CCC(O)(CC)[C@H](F)CNC(=O)c1cnc(Nc2ccc3ncsc3c2)cc1NCC(C)(C)F` [Example 317], for which the pIC50 was 8.77 at IRAK4 and 6.43 in test [1] (Homo sapiens, PBMC, 5 h).

As for `CC(C)Nc1cc(Nc2ccn3nccc3n2)ncc1C(=O)NC12CCC(N)(CC1)CC2` [Example 318, N-(4-aminobicyclo[2.2.2]octan-1-yl)-4-(isopropylamino)-6-(pyrazolo[1,5-a]pyrimidin-5-ylamino)nicotinamide], the negative logarithm of the IC50 (pIC50) was 8.16 on IRAK4 and 6.56 in test [1] (Homo sapiens, PBMC, 5 h).

Consider `CNC(=O)c1ccc(Nc2cc(Nc3ccc4ncsc4c3)ncc2C(=O)NC[C@@H](F)C(C)(C)O)cc1` [Example 319, (R)-6-(benzo[d]thiazol-6-ylamino)-N-(2-fluoro-3-hydroxy-3-methylbutyl)-4-(4-(methylcarbamoyl)phenylamino)nicotinamide], for which the pIC50 at IRAK4 was 8.52; in test [1] (Homo sapiens, PBMC, 5 h) it was 6.50.

Turning to `CC(C)(O)[C@H](F)CNC(=O)c1cnc(Nc2ccc3ncsc3c2)cc1Nc1ccc(C(N)=O)cc1` [Example 320], the pIC50 was 8.62 on IRAK4 and 6.57 in test [1] (Homo sapiens, PBMC, 5 h).

Turning to `CC(C)(O)[C@H](F)CNC(=O)c1cnc(Nc2ccc3ncsc3c2)cc1Nc1ccc(C(=O)NC2CC2)cc1` [Example 321], the pIC50 was 8.19 on IRAK4 and 5.94 in test [1] (Homo sapiens, PBMC, 5 h).

As for `CCNC(=O)c1ccc(Nc2cc(Nc3ccc4ncsc4c3)ncc2C(=O)NC[C@@H](F)C(C)(C)O)cc1` [Example 322], the pIC50 on IRAK4 was 8.07; in test [1] (Homo sapiens, PBMC, 5 h) it was 6.31.

Take `CC(C)(O)[C@H](F)CNC(=O)c1cnc(Nc2ccc3ncsc3c2)cc1Nc1ccc(C(=O)NCC(F)(F)F)cc1` [Example 324]: the pIC50 at IRAK4 is 7.97; in test [1] (Homo sapiens, PBMC, 5 h), 6.72.

`CC(C)(O)[C@H](F)CNC(=O)c1cnc(Nc2ccc3ncsc3c2)cc1Nc1ccc(C(=O)NCCO)cc1` [Example 325]: the negative-log IC50 (pIC50) is 8.31 on IRAK4 and 6.07 in test [1] (Homo sapiens, PBMC, 5 h).

As to `CCCNC(=O)c1ccc(Nc2cc(Nc3ccc4ncsc4c3)ncc2C(=O)NC[C@@H](F)C(C)(C)O)cc1` [Example 326], the pIC50 was 7.89 on IRAK4 and 6.36 in test [1] (Homo sapiens, PBMC, 5 h).

With `CC(C)(O)[C@H](F)CNC(=O)c1cnc(Nc2ccc3ncsc3c2)cc1N[C@H]1CCCC(O)C1` (stereo partly drawn) [Example 327, 6-(benzo[d]thiazol-6-ylamino)-N—((R)-2-fluoro-3-hydroxy-3-methylbutyl)-4-(3-hydroxycyclohexylamino)nicotinamide], the negative logarithm of the IC50 (pIC50) is 8.01 at IRAK4 and 6.00 in test [1].

With `CC(C)(O)[C@H](F)CNC(=O)c1cnc(Nc2ccc3ncsc3c2)cc1N[C@H]1CCCC(O)C1` (some centres unmarked) [Example 328], the figures for the pIC50 (at IRAK4; in test [1]) were 8.32 and 6.31, respectively.

On to `CC(C)(O)C(F)CNC(=O)c1cnc(Nc2ccc3ncsc3c2)cc1N[C@H]1CCCC(F)C1` (some centres unmarked) [Example 329, 6-(benzo[d]thiazol-6-ylamino)-N-(2-fluoro-3-hydroxy-3-methylbutyl)-4-(3-fluorocyclohexylamino)nicotinamide], for which the negative logarithm of the IC50 (pIC50) is 8.49 at IRAK4 and 6.95 in test [1] (Homo sapiens, PBMC, 5 h).

With `CC(C)(O)[C@H](F)CNC(=O)c1cnc(Nc2ccc3ncncc3c2)cc1N[C@@H]1CCC[C@H]1O` [Example 330], the pIC50 is 8.66 on IRAK4 and 7.12 in test [1] (Homo sapiens, PBMC, 5 h).

On to `CC(C)C(O)[C@H](F)CNC(=O)c1cnc(Nc2ccc3ncsc3c2)cc1N[C@@H]1CCC[C@H]1O` (some centres unmarked) [Example 331], for which the negative-log IC50 (pIC50) on IRAK4 is 8.62; in test [1] it was 6.79.

As for `CC(C)C(O)[C@H](F)CNC(=O)c1cnc(Nc2ccc3ncsc3c2)cc1N[C@@H]1CCC[C@H]1O` (some centres unmarked) [Example 332], the pIC50 at IRAK4 is 8.51; in test [1], 6.10.

`CC(O)([C@H](F)CNC(=O)c1cnc(Nc2ccc3ncsc3c2)cc1N[C@@H]1CCC[C@H]1O)C(F)(F)F` (some centres unmarked) [Example 333]: the pIC50 at IRAK4 is 8.39; in test [1] it was 6.82.

As to `CC(O)([C@H](F)CNC(=O)c1cnc(Nc2ccc3ncsc3c2)cc1N[C@@H]1CCC[C@H]1O)C(F)(F)F` (some centres unmarked) [Example 334], the figures for the pIC50 (on IRAK4; in test [1]) were 8.35 and 6.49, respectively.

`O=C(NC[C@@H](F)CO)c1cnc(Nc2ccc3ncsc3c2)cc1NC1CCCC1O` (some centres unmarked) [Example 337]: the negative logarithm of the IC50 (pIC50) at IRAK4 is 8.24; in test [1] (Homo sapiens, PBMC, 5 h) it was 6.10.

Regarding `CC(C)(O)[C@H](F)CNC(=O)c1cnc(Nc2ccc3nccnc3c2)cc1NC1CCCC1O` (some centres unmarked) [Example 338], the pIC50 at IRAK4 was 7.77; in test [1] (Homo sapiens, PBMC, 5 h) it was 6.31.

Turning to `CC(C)(O)[C@H](F)CNC(=O)c1cnc(Nc2ccc3ncsc3c2)cc1N[C@@H]1CCCC1F` (some centres unmarked) [Example 343], the negative logarithm of the IC50 (pIC50) is 8.52 on IRAK4 and 6.94 in test [1].

With `CC(C)(O)[C@H](F)CNC(=O)c1cnc(Nc2ccc3ncsc3c2)cc1N[C@@H]1CCCC1F` (some centres unmarked) [Example 344], the pIC50 on IRAK4 is 8.74; in test [1], 7.42.

As for `Cc1nc2cc(F)c(Nc3cc(NC4CCCC4F)c(C(=O)NC[C@@H](F)C(C)(C)O)cn3)cc2s1` (some centres unmarked) [Example 347], the pIC50 was 8.49 at IRAK4 and 6.49 in test [1] (Homo sapiens, PBMC, 5 h).

For `CC(C)(O)[C@H](F)CNC(=O)c1cnc(Nc2ccc3nccnc3c2)cc1NC1CCCC1F` (some centres unmarked) [Example 348], the pIC50 on IRAK4 is 8.17; in test [1] (Homo sapiens, PBMC, 5 h), 6.25.

Regarding `Cc1nc2ccc(Nc3cc(NC4CCCC4F)c(C(=O)NC[C@@H](F)C(C)(C)O)cn3)cc2s1` (some centres unmarked) [Example 349], the values for the negative-log IC50 (pIC50) (on IRAK4; in test [1]) were 8.07 and 6.32, respectively.

On to `Cc1nc2ccc(Nc3cc(NC4CCCC4F)c(C(=O)NC[C@@H](F)C(C)(C)O)cn3)cc2s1` (some centres unmarked) [Example 350], for which the pIC50 at IRAK4 was 8.57; in test [1] it was 6.83.

For the compound `CC(C)(O)[C@H](F)CNC(=O)c1cnc(Nc2ccc3ncccc3c2)cc1NC1CCCC1F` (some centres unmarked) [Example 351], the pIC50 on IRAK4 is 8.23; in test [1] (Homo sapiens, PBMC, 5 h) it was 6.64.

For `O=C(NC1CCC(O)CC1)c1cnc(Nc2ccc3ncsc3c2)cc1NC1CCCC1F` (centres unmarked) [Example 352], the negative logarithm of the IC50 (pIC50) at IRAK4 was 8.42; in test [1] it was 6.61.

`O=C(NC1CCC(O)CC1)c1cnc(Nc2ccc3ncsc3c2)cc1NC1CCCC1F` (centres unmarked) [Example 353]: the pIC50 on IRAK4 is 8.54; in test [1] it was 6.95.

For the compound `CC(C)(O)[C@H](F)CNC(=O)c1cnc(Nc2ccc3ncoc3c2)cc1N[C@@H]1CCCC1F` (some centres unmarked) [Example 354], the pIC50 was 8.36 on IRAK4 and 6.40 in test [1] (Homo sapiens, PBMC, 5 h).

Regarding `CC(C)(O)[C@H](F)CNC(=O)c1cnc(Nc2ccc3ncoc3c2)cc1N[C@@H]1CCCC1F` (some centres unmarked) [Example 355], the pIC50 was 8.66 on IRAK4 and 6.63 in test [1].

Consider `CC(C)(O)[C@H](F)CNC(=O)c1cnc(Nc2ccc3nonc3c2)cc1N[C@@H]1CCCC1F` (some centres unmarked) [Example 356], for which the pIC50 at IRAK4 is 8.52; in test [1] (Homo sapiens, PBMC, 5 h), 6.55.

`CC(C)(O)[C@H](F)CNC(=O)c1cnc(Nc2ccc3nonc3c2)cc1N[C@@H]1CCCC1F` (some centres unmarked) [Example 357]: the pIC50 at IRAK4 was 8.14; in test [1] it was 6.40.

For `CC(C)(O)[C@H](F)CNC(=O)c1cnc(Nc2ccc3ncsc3c2)cc1NC1CCCC1(F)F` (some centres unmarked) [Example 358], the pIC50 on IRAK4 was 8.62; in test [1] (Homo sapiens, PBMC, 5 h), 7.32.

`CC(C)(O)[C@H](F)CNC(=O)c1cnc(Nc2ccc3nccnc3c2)cc1NC1CCCC1(F)F` (some centres unmarked) [Example 359]: the negative-log IC50 (pIC50) on IRAK4 is 8.34; in test [1] (Homo sapiens, PBMC, 5 h), 6.73.

For `CC(C)(O)[C@H](F)CNC(=O)c1cnc(Nc2ccc3ncccc3c2)cc1NC1CCCC1(F)F` (some centres unmarked) [Example 360], the pIC50 on IRAK4 was 8.55; in test [1] (Homo sapiens, PBMC, 5 h), 7.14.

In the case of `CC(C)(O)C(F)CNC(=O)c1cnc(Nc2ccc3ncsc3c2)cc1NC1CC(C(F)F)C1` (centres unmarked) [Example 361, 4-(3-(difluoromethyl)cyclobutylamino)-6-(3a,27a-dihydrobenzo[d]thiazol-6-ylamino)-N-(2-fluoro-3-hydroxy-3-methylbutyl)nicotinamide], the negative logarithm of the IC50 (pIC50) was 8.16 at IRAK4 and 6.75 in test [1].

Consider `CC(C)(O)[C@@H](F)CNC(=O)c1cnc(Nc2ccc3ncsc3c2)cc1NC1CC1` [Example 366, (S)-6-(benzo[d]thiazol-6-ylamino)-4-(cyclopropylamino)-N-(2-fluoro-3-hydroxy-3-methylbutyl)nicotinamide], for which the negative-log IC50 (pIC50) on IRAK4 is 8.03; in test [1] (Homo sapiens, PBMC, 5 h) it was 6.13.

For the compound `CC(C)Nc1cc(Nc2nc3ccnn3cc2F)ncc1C(=O)NC[C@@H](F)C(C)(C)O` [Example 367, (R)—N-(2-fluoro-3-hydroxy-3-methylbutyl)-6-((6-fluoropyrazolo[1,5-a]pyrimidin-5-yl)amino)-4-(isopropylamino)nicotinamide], the pIC50 was 8.32 on IRAK4 and 6.24 in test [1] (Homo sapiens, PBMC, 5 h).

Take `CC(C)(O)[C@H](F)CNC(=O)c1cnc(Nc2nc3ccnn3cc2F)cc1NC1CC1` [Example 368]: the figures for the pIC50 (at IRAK4; in test [1]) were 8.28 and 6.35, respectively.

In the case of `CC(C)(O)[C@H](F)CNC(=O)c1cnc(Nc2nc3ccnn3cc2F)cc1NC1CCOCC1` [Example 369], the pIC50 on IRAK4 was 8.09; in test [1] (Homo sapiens, PBMC, 5 h) it was 6.07.

These data come from patent US9546153B2, “Bicyclic heterocycle substituted pyridyl compounds useful as kinase modulators” (BRISTOL-MYERS SQUIBB COMPANY, priority 2012, dated 2017).
